Measured values reported in US8778975B2, “Helicobacter pylori eradicating agent having inhibitory activity on gastric acid secretion” (Link Geonomics, Inc., priority 2006, dated 2014).
In brackets after ≈: the same amount, converted by molar mass. Like-named read-outs stand apart in the source and are kept apart here.

What was measured:
[1] = tested on: clinically separated clarithromycin-resistant strains and amoxicillin-insensitive strains of Helicobacter pylori; assay: Antibacterial potency (MIC) against clarithromycin-resistant and amoxicillin-insensitive strains, Pharmacological Test Example 3; assay type: cell-based
Procedure: A test was conducted on the antibacterial potency of the compounds of the present invention against the clarithromycin-resistant strains and amoxicillin-insensitive strains of the bacterium Helicobacter pylori.
A test was conducted on the antibacterial potency of the compounds of the present invention, using clinically separated clarithromycin-resistant strains and amoxicillin-insensitive strains of the bacterium Helicobacter pylori. For the respective strains, in vitro tests were performed in Columbia agar medium. Each of the specimens was dissolved in a 1% DMSO solution. The bacteria were cultured at 37° C. and pH 7.0 for 3 days, and on the 4th day, the minimum growth inhibitory concentration (MIC, μg/ml) was determined.

[2] = tested on: Proteus vulgaris (ATCC 13315); assay: Antibacterial test (MIC), Gram-negative bacteria; assay type: cell-based
Description: (§1) As for the Gram-negative bacteria, E. coli (ATCC 10536, ATCC 25922), Klebsiella pneumonia (ATCC 10031), Proteus vulgaris (ATCC 13315), Pseudomonas aeruginosa (ATCC 9027), and Salmonella typhimurium (ATCC 13311) were used, and as for the Gram-positive bacteria, Staphylococcus aureus, MRSA (ATCC 33591), Staphylococcus epidermidis (ATCC 12228), Streptococcus pneumonia (ATCC 6301), Mycobacterium ranae (ATCC 110), and Enterococcus faecalis (VRE, ATCC 51575) were used. The various bacteria were cultured at 37° C. for 20 to 48 hours by conventional methods, and the minimum growth inhibitory concentration (MIC, μg/ml) was determined. Each of the specimens was dissolved in a 1% DMSO solution. Furthermore, amoxicillin, clarithromycin and gentamycin were used as control drugs of antibacterial substance.

[3] = tested on: Escherichia coli (ATCC 10536); assay: Antibacterial test (MIC), Gram-negative bacteria; assay type: cell-based
Description: as §1

[4] = tested on: Escherichia coli (ATCC 25922); assay: Antibacterial test (MIC), Gram-negative bacteria; assay type: cell-based
Description: as §1

[5] = tested on: Pseudomonas aeruginosa (ATCC 9027); assay: Antibacterial test (MIC), Gram-negative bacteria; assay type: cell-based
Description: as §1

[6] = tested on: Salmonella typhimurium (ATCC 13311); assay: Antibacterial test (MIC), Gram-negative bacteria; assay type: cell-based
Description: as §1

[7] = tested on: Helicobacter pylori bacteria (ATCC 43504); assay: Antiulcer action and bacteria eradicating action in Helicobacter pylori-infected Mongolian gerbils; assay type: in vivo; conditions: for Number of Bacteria (average) (log CFU): gastric mucosa; for responders at 10 mg/kg / responders at 30 mg/kg: Helicobacter pylori
Procedure: Mongolian gerbils were experimentally infected with Helicobacter pylori bacteria, and the antiulcer action and the Helicobacter pylori bacteria eradicating action of the compounds of the present invention were tested.
Male Mongolian gerbils (30 to 40 g), five animals in each group, were orally inoculated with Helicobacter pylori bacteria (ATCC 43504) at 1.6×10^7 CFU/0.5 ml/mouse, and bred for one week, and then drug was administered two times a day for two weeks. Thereafter, the […] were bred for three weeks, and then the rats were fasted for 18 hours and subjected to abdominal section, followed by autopsy. The severity of gastric ulcer, the number of Helicobacter pylori bacteria in the gastric mucosa, and the antibody titer were measured.

[8] = tested on: Helicobacter pylori standard strains ATCC 43504, ATCC 43629, ATCC 43570 and clinically separated strains; assay: Anti-Helicobacter pylori activity (MIC), standard and clinically separated strains, Pharmacological Test Example 2; assay type: cell-based
Procedure: For the bacterium Helicobacter pylori, standard strains ATCC 43504, ATCC 43629 and ATCC 43570 were used to perform in vitro tests in Columbia agar medium. The bacteria were cultured at 37° C. and pH 7.0 for 3 days. On the 4th day, the minimum growth inhibitory concentration (MIC, μg/ml) was determined. Each of the specimens was dissolved in a 1% DMSO solution. Furthermore, amoxicillin and clarithromycin were used as control drugs of antibacterial substance. Further, the compound described in the article of Thomas C. Kuehler (J. Med.

[9] = tested on: Streptococcus pneumonia (ATCC 6301); assay: Antibacterial test (MIC), Gram-positive bacteria; assay type: cell-based; conditions: Streptococcus pneumoniae, ATCC6301
Description: as §1

[10] = tested on: Enterococcus faecalis (VRE, ATCC 51575); assay: Antibacterial test (MIC), Gram-positive bacteria; assay type: cell-based
Description: as §1

[11] = tested on: Staphylococcus aureus, MRSA (ATCC 33591); assay: Antibacterial test (MIC), Gram-positive bacteria; assay type: cell-based
Description: as §1

[12] = tested on: gastric acid secretion; assay: Gastric acid secretion inhibiting action, pylorus ligation in rats; assay type: in vivo, SD rats; conditions: 30 mg/kg to the duodenum, 4 hours after pylorus ligation, average
Procedure: The gastric acid secretion inhibiting action of the compounds of the present invention was tested. A group of five animals of male SD rats (about 200 g) were used, and the medicaments were respectively dissolved in 0.5% CMC and were all administered to the duodenum respectively at 30 mg/kg. The rats were fasted overnight from the day before the administration of the test substance to the point of administration, and pylorus ligation was performed.

[13] = tested on: Helicobacter pylori standard strain ATCC 43504; assay: Antibacterial potency test (MIC), Columbia agar medium, Pharmacological Test Example 1; assay type: cell-based; conditions: ATCC43504, Table 8 summary, strain not stated, read-out: Anti-HP activity (MIC: μg/mL)
Procedure: A test was conducted to see whether there is a difference in the anti-Helicobacter pylori activity depending on the number of carbon atoms of the linear alkyl group for a substituent at the 4-position of the pyridine ring.
For the bacterium Helicobacter pylori, a standard strain ATCC 43504 was used to perform in vitro tests in Columbia agar medium. Each of the specimens was dissolved in a 1% DMSO solution, and the bacteria were cultured at 37° C. and pH 7.0 for 3 days. On the 4th day, the minimum growth inhibitory concentration (MIC, μg/ml) was determined.

[14] = Stability test in acidic hydrochloric acid solution (pH 2), residual ratio by HPLC; assay type: physicochemical; conditions: Table 8 summary, time not stated
Procedure: A test for the stability of thioether compounds (hereinafter, referred to SH-form) and sulfoxide compounds (hereinafter, referred to SO-form) at pH 2.0 was carried out. (Method) Each of the specimens produced in Examples 1 to 3 and Reference Examples 6 to 8 (sulfinyl products of Examples 1 to 3) was maintained in a solution adjusted to pH 2 with 0.5 or 1.0 mmol/L HCl (37° C.) for a predetermined time period. Subsequently, the solution was adjusted to pH 8 with triethylamine, and then an HPLC analysis was performed to calculate the residual ratio.

[15] = tested on: Klebsiella pneumonia (ATCC 10031); assay: Antibacterial test (MIC), Gram-negative bacteria; assay type: cell-based
Description: as §1

[16] = tested on: Mycobacterium ranae (ATCC 110); assay: Antibacterial test (MIC), Gram-positive bacteria; assay type: cell-based
Description: as §1

[17] = tested on: Staphylococcus epidermidis (ATCC 12228); assay: Antibacterial test (MIC), Gram-positive bacteria; assay type: cell-based
Description: as §1

[18] = Helicobacter pylori, AMO-insensitive strain NO. 4, read-out: MIC
[19] = Helicobacter pylori, CAM-resistant strain NO. 1, read-out: MIC
[20] = Helicobacter pylori, CAM-resistant strain NO. 2, read-out: MIC
[21] = Helicobacter pylori, CAM-resistant strain NO. 3, read-out: MIC
[22] = Helicobacter pylori, CAM-resistant strain NO. 4, read-out: MIC
[23] = Salmonella enterica, read-out: MIC
[24] = 10 mg/kg, two times a day for two weeks
[25] = ATCC43504, 336 h, 10 mg/kg, two times a day for two weeks, read-out: Eradication rate (%)
[26] = Clinically separated strain PT1045482
[27] = Clinically separated strain PT1045483
[28] = Clinically separated strain PT1045484
[29] = ATCC43504, Table 8, amount of administration (mg) 30, read-out: HP eradication based on Mongolian gerbil infection model: Eradication rate (%)

Row | Molecule | MIC [1, 18] | MIC [1, 19] | MIC [1, 20] | MIC [1, 21] | MIC [1, 22] | MIC ([2]; ATCC13315, read-out: MIC) | MIC ([3]; ATCC10536, read-out: MIC) | MIC ([4]; ATCC25922, read-out: MIC) | MIC ([5]; ATCC9027, read-out: MIC) | MIC [6, 23] | Antibody titer (average) ([7]; 10 mg/kg) | Number of Bacteria (average) (log CFU) ([7]; 10 mg/kg) | Number of Ulcers discovered [7, 24] | responders at 10 mg/kg [7, 25] | MIC [8, 26] | MIC [8, 27] | MIC [8, 28] | MIC ([8]; Standard strain ATCC 43504) | MIC ([8]; Standard strain ATCC 43570) | MIC ([8]; Standard strain ATCC 43629) | other results
1 | CC1(C)S[C@@H]2[C@H](NC(=O)[C@H](N)c3ccc(O)cc3)C(=O)N2[C@H]1C(=O)O [AMPC, Amoxicillin] | 0.12 µg/mL (≈ 0.328 µM) | < 0.015 µg/mL | < 0.015 µg/mL | < 0.015 µg/mL | < 0.015 µg/mL | 6.25 µg/mL (≈ 17.1 µM) | 6.25 µg/mL (≈ 17.1 µM) | 6.25 µg/mL (≈ 17.1 µM) | > 100 µg/mL | 0.3 µg/mL (≈ 0.821 µM) | 0.40 | 5.0 log CFU | 4/5 | 20% | 0.06 µg/mL (≈ 0.164 µM) | 0.06 µg/mL (≈ 0.164 µM) | 0.06 µg/mL (≈ 0.164 µM) | 0.06 µg/mL (≈ 0.164 µM) | < 0.015 µg/mL | 0.06 µg/mL (≈ 0.164 µM) | MIC ([1]; AMO-insensitive strain NO. 2): 0.25 µg/mL (≈ 0.684 µM); MIC ([1]; AMO-insensitive strain NO. 3): 0.25 µg/mL (≈ 0.684 µM); MIC ([1]; Helicobacter pylori): 0.25 µg/mL (≈ 0.684 µM); MIC [9]: 0.01 µg/mL (≈ 0.0274 µM); MIC [10]: 0.3 µg/mL (≈ 0.821 µM); MIC ([11]; read-out: MIC): 0.1 µg/mL (≈ 0.274 µM)
2 | CC[C@H]1OC(=O)[C@H](C)[C@@H](O[C@H]2C[C@@](C)(OC)[C@@H](O)[C@H](C)O2)[C@H](C)[C@@H](O[C@@H]2O[C@H](C)C[C@H](N(C)C)[C@H]2O)[C@](C)(OC)C[C@@H](C)C(=O)[C@H](C)[C@@H](O)[C@]1(C)O [CAM, Clarithromycin] | 0.03 µg/mL (≈ 0.0401 µM) | 32 µg/mL (≈ 42.8 µM) | 8 µg/mL (≈ 10.7 µM) | 64 µg/mL (≈ 85.6 µM) | 32 µg/mL (≈ 42.8 µM) | 100 µg/mL (≈ 134 µM) | 50 µg/mL (≈ 66.8 µM) | 50 µg/mL (≈ 66.8 µM) | > 100 µg/mL | 25 µg/mL (≈ 33.4 µM) | – | – | – | – | 0.3 µg/mL (≈ 0.401 µM) | 0.3 µg/mL (≈ 0.401 µM) | 0.3 µg/mL (≈ 0.401 µM) | 0.1 µg/mL (≈ 0.134 µM) | < 0.015 µg/mL | 0.1 µg/mL (≈ 0.134 µM) | MIC ([1]; Helicobacter pylori, AMO-insensitive strain NO. 1, read-out: MIC): 0.06 µg/mL (≈ 0.0802 µM); MIC ([1]; Helicobacter pylori, AMO-insensitive strain NO. 2, read-out: MIC): 0.03 µg/mL (≈ 0.0401 µM); MIC ([1]; Helicobacter pylori, AMO-insensitive strain NO. 3, read-out: MIC): 0.06 µg/mL (≈ 0.0802 µM); Antibody titer (average) ([7]; 30 mg/kg): 0.35; Number of Bacteria (average) (log CFU) ([7]; 30 mg/kg): 5.2 log CFU; Number of Ulcers discovered ([7]; 30 mg/kg, two times a day for two weeks): 4/5; responders at 30 mg/kg ([7]; ATCC43504, 336 h, 30 mg/kg, two times a day for two weeks, read-out: Eradication rate (%)): 20%; MIC [9]: 0.02 µg/mL (≈ 0.0267 µM); MIC [10]: 0.1 µg/mL (≈ 0.134 µM); MIC ([11]; read-out: MIC): 0.1 µg/mL (≈ 0.134 µM)
3 | CN/C(=N/CCSCc1nc[nH]c1C)NC#N [Cimetidine] | – | – | – | – | – | – | – | – | – | – | – | – | – | – | – | – | – | – | – | – | Gastric acid secretion inhibiting action: Amount of gastric acid [12]: 54%; Gastric acid secretion inhibiting action: Amount of gastric acid secretion [12]: 74%; Gastric acid secretion inhibiting action: Total acidity [12]: 41%
4 | COc1ccc2[nH]c([S+]([O-])Cc3ncc(C)c(OC)c3C)nc2c1 (centres unmarked) [OMZ, Omeprazole] | – | – | – | – | – | – | – | – | – | – | 0.52 | 6.0 log CFU | 5/5 | 0% | – | – | – | – | – | – | responders at 30 mg/kg [7, 29]: 0%; MIC [13]: 128 µg/mL (≈ 371 µM); Stability in acid (residual ratio at pH = 2: %) [14]: 0%
5 | COCCCOc1ccnc(C[S+]([O-])c2nc3ccccc3[nH]2)c1C (centres unmarked) [RAZ, Rabeprazole] | – | – | – | – | – | – | – | – | – | – | – | – | – | – | – | – | – | – | – | – | responders at 30 mg/kg [7, 29]: 0%; MIC [13]: 8 µg/mL (≈ 22.3 µM); Stability in acid (residual ratio at pH = 2: %) [14]: 0%
6 | Gentamycin [GEM] | – | – | – | – | – | – | – | – | – | – | – | – | – | – | – | – | – | – | – | – | MIC [2]: 0.3 µg/mL; MIC [3]: 0.3 µg/mL; MIC [4]: 1.0 µg/mL; MIC [5]: 0.3 µg/mL; MIC [15]: 1.0 µg/mL; MIC [6]: 1.0 µg/mL; MIC [16]: 0.3 µg/mL; MIC [17]: 0.1 µg/mL; MIC [11]: 1.0 µg/mL
